Article PMC10926604, “Discovery of a novel small molecule as CD47/SIRPα and PD-1/PD-L1 dual inhibitor for cancer immunotherapy” (Cell Communication and Signaling : CCS, 2024)

Key:
[1] = system: Jurkat cells co-cultured with CHO-K1-hPD-L1 cells; assay: Co-culture assay, IL-2 secretion of Jurkat cells with CHO-K1-hPD-L1 cells; format: cell-based, human; settings: 50 μM, co-culture with CHO-K1-hPD-L1 cells 48 h
Description: Jurkat cells were stimulated with 25 ng/mL of […] (PMA, 16,561–29-8, Sigma) and 1 μg/mL of phytohemag-glutinin (PHA, L8902, Sigma) or 1 μg/mL anti-human CD3 (OKT3, BioGems and 0.5 μg/mL anti-human CD28 (CD28.2, BioGems) for 24 h. Subsequently, they were co-cultured with CHO-K1-hPD-L1 cells at a ratio of 4:1 for 48 h. SMC18 (50 μΜ) and OPBP-1 peptide (100 μM) were added as experimental group and positive control group, respectively. Four hours before the end of the co-culture, protein transport inhibitor (555,029, BD Biosciences) was added. Jurkat cells were collected and stained with anti-human CD45 antibody (HI30, eBioscience) for 30 min. The cells were then fixed and stained with anti-human IL-2-APC (MQ1-17H12, eBioscience) for another 30 min. The fluorescence intensity was analyzed by flow cytometry (BD, FACSCelesta).

human PD-L1 (hPD-L1) = target: T1, human PD-L1 (hPD-L1) (Homo sapiens, UniProt Q9NZQ7); assay: MST binding assay, human PD-L1; settings: PD-L1-IgV-His, read-out: dissociation constant (KD) for human PD-L1
T1 construct: PD-L1-IgV-His (human: 10,084-H08H, mouse: 50,010-M08H, Sino Biological); His; purchased Sino Biological 10,084-H08H
T1 sequence (Q9NZQ7 19-127 limits assumed): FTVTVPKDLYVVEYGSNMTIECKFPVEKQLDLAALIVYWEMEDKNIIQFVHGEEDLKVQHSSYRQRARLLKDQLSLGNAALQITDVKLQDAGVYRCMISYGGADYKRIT
Description: SIPRα-IgV-His (human: SIA-H5225, mouse: SIA-M52H4, ACRO Biosystems) and PD-L1-IgV-His (human: 10,084-H08H, mouse: 50,010-M08H, Sino Biological) proteins were labeled with Red-NHS647 dye (NT-MO-L001, NanoTemper) for subsequent experiments. SMC18 (C385-0664, ChemDiv) was serially diluted using PBST (from 0.0191 μM to 200 μM) and mixed with the labeled proteins. The samples were then aspirated using standard capillaries and assayed by MST instrument (Monolith NT.115, NanoTemper), and the results were analyzed using the analytical software Monolith NT.115 system to calculate the dissociation constant (KD) values.

MC38 tumor-bearing mice = assay: MC38 tumor model; format: in vivo, mouse; settings: 2 or 6 mg/kg i.p. daily for 14 days
Description: The animal studies were conducted in accordance with the guidelines and approved by the Ethics Committee of Zhengzhou University (ZZUIRB 2021–36). Six weeks old female mice were purchased from the Vital River Laboratory (Beijing, China). Mouse MC38 colorectal cancer cells (1 × 10^6) were harvested and subcutaneously (s.c.) injected into the right abdomen of the mice. When the tumor size reached 40 ~ 80 mm^3, the mice were randomly assigned into three groups (n = 5 per group) to receive intraperitoneal injections daily of SMC18 (2 mg/kg), SMC18 (6 mg/kg) or normal saline for 14 days. At day 23, mice were euthanized for ex vivo analysis.

PD-1 = assay: Tyrosine phosphorylation assay of PD-1, Jurkat/CHO-K1-hPD-L1 co-culture; format: cell-based, human; settings: 50 μM, stimulated Jurkat with CHO-K1-hPD-L1 cells, 30 min, Western blotting
Description: Jurkat cells were stimulated with of PMA (25 ng/mL) and PHA (1 μg/mL) for 24 h. Stimulated Jurkat cells (2 × 10^6 cells/well) were co-cultured with CHO-K1-PD-L1 cells (1 × 10^7 cells/well). The co-cultures were treated with PBS, SMC18 (50 μM), or anti-human PD-1 (a17188b, Biolegend) and incubated at 37℃ for 30 min. After PBS washing, the cells were collected by centrifugation and lysed. Finally, cell lysates were collected for immunoprecipitation and Western blotting.
In brief, the protein samples were separated by SDS-PAGE using a 4% stacking gel and an 8 ~ 10% main gel and transferred to a polyvinylidene difluoride (PVDF) membrane. The membrane was blocked with 5% milk at room temperature for 1–2 h and then incubated with anti-SIRPα (dilution 1:1000, AB8120, Abcam), anti-PD-1 (dilution 1:200, ab52587, Abcam) or anti-Phosphotyrosine (dilution 1:1000, 05–321, Millipore) dissolved in primary antibody dilution buffer overnight at 4 °C. Then the membrane was washed and incubated with appropriate HRP-coupled goat anti-rabbit IgG (D110058, Sangon Biotech) and HRP-coupled goat anti-mouse IgG (D110087, Sangon Biotech) for 1–2 h at room temperature. Finally, the membranes were exposed using an enhanced chemiluminescence (ECL) detection kit (P1030, Applygen). Results were analyzed by ImageJ software (NIH, Bethesda, MD, United States).

B16-OVA cells = assay: MTT assay, B16-OVA cells; format: cell-based, mouse; settings: 100 µM; 24 h, 48 h, 72 h
Description: MC38 and B16-OVA cells were seeded into 96-well plates at a density of 3,000 cells per well, respectively and allowed to adhere overnight. SMC18 was added to the cells and incubated for 24 h, 48 h and 72 h, respectively. Cell viability was measured by adding MTT (3-(4, 5-dimethyl-2-thiazolyl)-2,5-diphenyl-2-H-tetrazolium bromide, 298–93-1, Sigma) solution and incubating for 4 h. The cells were then lysed by shaking with DMSO. The absorbance values at 490 nm were measured using a multi-mode microplate reader (Molecular Devices, SpectraMax iD5).
Fig S3. The Effect of SMC18 on Tumor Cell Proliferation in vitro. MC38 cells (3000 cells/well) and B16-OVA cells (3000 cells/well) were seeded in flat-bottomed 96-well plates and allowed to adhere overnight. Subsequently, the cells were starved for 8 hours in serum-free medium. SMC18 was diluted in complete culture medium and added to the wells, following which the cells were incubated for 24 h, 48 h, and 72 h. After the designated incubation periods, 20 μL of MTT solution was added to each well. Four hours later, the supernatant was aspirated, and 150 μL of DMSO was added to each well to dissolve the MTT formazan product. The plates were then shaken for 10 minutes, and absorbance was measured at 490 nm using a microplate reader.

Cc1cc(C)cc(NS(=O)(=O)c2ccc3[nH]cc(C(=O)NCCc4ccccc4)c(=O)c3c2)c1 [SMC18]
ability of Jurkat cells to secrete IL-2 [1]: effectively restored
Kd (human PD-L1 (hPD-L1)): 29 ± 30 nM
body weight of tumor-bearing mice (MC38 tumor-bearing mice): without affecting
growth of MC38 tumors (MC38 tumor-bearing mice): effectively delayed
levels of phosphorylated PD-1 (PD-1): decreased
toxicity towards B16-OVA cells (MTT) (B16-OVA cells): only mild toxicity
